From article PMC6842095 (Neuropharmacology, 2019)
Where “and” joins values, the source holds several entries; their conditions need not be identical. Equal values may be shown once. Read-outs that look alike come from different tables or passages of the source.

How the values were obtained:
α4 GREFP β2 AChR [1] = target: T1, α4 GREFP β2 AChR (Homo sapiens, UniProt P17787+P43681, I229P/K186G/K222F/T220E/Y218R); assay type: binding
α4 GREFP β4 AChR [2] = target: T2, α4 GREFP β4 AChR (Homo sapiens, UniProt P30926+P43681, I229P/K186G/K222F/T220E/Y218R)
α2 GFEP β4 AChR [3] = target: T3, α2 GFEP β4 AChR (Homo sapiens, UniProt P30926+Q15822, D246E/I251P/K208G/K244F)
α2 GFEP β4 AChR [4] = target: T3, α2 GFEP β4 AChR; assay: cell-based
α3 GFEP β4 AChR [5] = target: T4, α3 GFEP β4 AChR (Homo sapiens, UniProt P30926+P32297, I227P/K184G/K220F/N222E)
α3 GFEP β4 AChR [6] = target: T4, α3 GFEP β4 AChR; assay: Time course of ^125I-α-BTX dissociation; assay type: binding
α4 GREFP β4 AChR [7] = target: T2, α4 GREFP β4 AChR; assay: Time course of ^125I-α-BTX dissociation; assay type: binding
[8] = target: muscle AChR (α1, β, ε, δ) (Homo sapiens, UniProt P02708+Q04844+Q07001); assay type: binding
α4 GREFP β2 AChR [9] = target: T1, α4 GREFP β2 AChR; assay: Time course of ^125I-α-BTX dissociation; assay type: binding
α2 GFEP β2 AChR = α2 GFEP β2 AChR (Homo sapiens, UniProt P17787+Q15822, D246E/I251P/K208G/K244F); assay type: binding
α7 AChR = α7 AChR (Homo sapiens, UniProt P36544); assay type: binding
α2 GFEP β4 AChR [10] = target: T3, α2 GFEP β4 AChR; assay: Time course of ^125I-α-BTX dissociation; assay type: binding
wild type α4β2 AChR = wild type α4β2 AChR (Homo sapiens, UniProt P17787+P43681); assay type: binding

T4 sequence (P32297 32-505 K184G/K220F/N222E/I227P): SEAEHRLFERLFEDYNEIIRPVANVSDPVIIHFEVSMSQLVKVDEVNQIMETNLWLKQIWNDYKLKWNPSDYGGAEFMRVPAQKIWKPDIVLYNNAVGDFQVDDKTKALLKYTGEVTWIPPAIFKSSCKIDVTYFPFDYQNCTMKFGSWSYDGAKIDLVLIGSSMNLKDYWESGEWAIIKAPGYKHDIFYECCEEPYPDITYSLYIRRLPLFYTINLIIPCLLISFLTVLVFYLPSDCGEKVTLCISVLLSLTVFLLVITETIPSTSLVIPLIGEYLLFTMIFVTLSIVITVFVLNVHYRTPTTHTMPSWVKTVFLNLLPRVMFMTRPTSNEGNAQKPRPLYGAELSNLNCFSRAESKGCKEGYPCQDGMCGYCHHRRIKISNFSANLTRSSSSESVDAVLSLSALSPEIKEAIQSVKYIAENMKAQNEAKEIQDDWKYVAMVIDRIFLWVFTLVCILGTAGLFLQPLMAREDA
T4 sequence (P30926 22-498, stated change not applied): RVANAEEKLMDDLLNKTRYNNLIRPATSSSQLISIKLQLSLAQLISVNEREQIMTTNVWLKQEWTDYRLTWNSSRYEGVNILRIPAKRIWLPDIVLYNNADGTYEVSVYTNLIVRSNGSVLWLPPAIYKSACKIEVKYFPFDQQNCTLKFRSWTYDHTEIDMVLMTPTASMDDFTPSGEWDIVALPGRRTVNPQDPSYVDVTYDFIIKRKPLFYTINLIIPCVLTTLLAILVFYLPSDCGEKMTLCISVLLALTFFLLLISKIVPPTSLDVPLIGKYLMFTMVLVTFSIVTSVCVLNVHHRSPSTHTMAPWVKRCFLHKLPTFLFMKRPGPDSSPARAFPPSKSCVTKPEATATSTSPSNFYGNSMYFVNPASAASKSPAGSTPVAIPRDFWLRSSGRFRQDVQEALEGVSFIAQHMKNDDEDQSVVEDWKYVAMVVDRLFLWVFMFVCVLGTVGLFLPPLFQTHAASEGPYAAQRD
T3 sequence (P30926 22-498, stated change not applied): as above
T3 sequence (Q15822 27-529 K208G/K244F/D246E/I251P): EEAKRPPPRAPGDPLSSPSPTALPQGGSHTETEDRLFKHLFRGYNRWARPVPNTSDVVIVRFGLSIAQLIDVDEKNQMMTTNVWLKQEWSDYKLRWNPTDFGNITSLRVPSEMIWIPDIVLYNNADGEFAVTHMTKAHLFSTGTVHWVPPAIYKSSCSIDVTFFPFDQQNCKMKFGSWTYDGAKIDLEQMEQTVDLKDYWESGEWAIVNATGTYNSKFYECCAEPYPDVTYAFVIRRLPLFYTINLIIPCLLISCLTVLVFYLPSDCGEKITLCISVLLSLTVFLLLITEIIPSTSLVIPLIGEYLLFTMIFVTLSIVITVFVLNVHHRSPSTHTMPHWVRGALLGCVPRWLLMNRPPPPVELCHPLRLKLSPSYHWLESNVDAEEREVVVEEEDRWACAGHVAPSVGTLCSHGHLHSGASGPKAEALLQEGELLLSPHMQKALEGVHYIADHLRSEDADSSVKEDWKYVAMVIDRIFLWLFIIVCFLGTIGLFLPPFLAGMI
T2 sequence (P30926 22-498): as the sequence (P30926 22-498, stated change not applied) above
T2 sequence (P43681 29-627 K186G/Y218R/T220E/K222F/I229P): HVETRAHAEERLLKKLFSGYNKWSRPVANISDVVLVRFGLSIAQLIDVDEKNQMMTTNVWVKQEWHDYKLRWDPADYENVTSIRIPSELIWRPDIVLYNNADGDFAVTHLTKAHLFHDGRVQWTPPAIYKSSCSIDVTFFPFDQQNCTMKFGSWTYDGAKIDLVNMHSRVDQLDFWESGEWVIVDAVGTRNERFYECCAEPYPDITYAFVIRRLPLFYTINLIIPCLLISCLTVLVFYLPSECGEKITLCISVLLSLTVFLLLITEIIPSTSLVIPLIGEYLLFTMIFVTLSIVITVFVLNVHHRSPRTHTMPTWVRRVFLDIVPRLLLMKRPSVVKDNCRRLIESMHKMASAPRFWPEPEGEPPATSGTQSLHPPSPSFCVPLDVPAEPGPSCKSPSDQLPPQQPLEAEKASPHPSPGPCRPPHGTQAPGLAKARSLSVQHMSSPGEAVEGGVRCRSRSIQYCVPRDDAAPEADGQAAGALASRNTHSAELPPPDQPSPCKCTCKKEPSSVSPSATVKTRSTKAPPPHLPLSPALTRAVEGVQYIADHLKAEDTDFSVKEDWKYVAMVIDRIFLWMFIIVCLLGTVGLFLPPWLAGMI
T1 sequence (P43681 29-627 K186G/Y218R/T220E/K222F/I229P): as above
T1 sequence (P17787 26-502, stated change not applied): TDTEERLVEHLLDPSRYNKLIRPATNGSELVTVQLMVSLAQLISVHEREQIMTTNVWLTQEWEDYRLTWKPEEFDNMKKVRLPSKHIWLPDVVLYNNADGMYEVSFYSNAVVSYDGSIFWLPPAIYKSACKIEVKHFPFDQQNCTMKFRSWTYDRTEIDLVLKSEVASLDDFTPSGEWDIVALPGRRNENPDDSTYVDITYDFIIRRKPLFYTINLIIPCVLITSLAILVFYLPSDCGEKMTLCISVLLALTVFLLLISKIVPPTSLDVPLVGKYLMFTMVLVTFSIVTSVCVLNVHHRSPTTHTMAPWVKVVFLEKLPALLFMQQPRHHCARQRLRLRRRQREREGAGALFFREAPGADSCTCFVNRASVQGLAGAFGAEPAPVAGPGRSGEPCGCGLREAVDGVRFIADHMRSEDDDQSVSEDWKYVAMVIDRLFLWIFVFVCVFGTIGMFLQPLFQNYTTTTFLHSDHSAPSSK
Sequence of α7 AChR (P36544 23-502 limits assumed): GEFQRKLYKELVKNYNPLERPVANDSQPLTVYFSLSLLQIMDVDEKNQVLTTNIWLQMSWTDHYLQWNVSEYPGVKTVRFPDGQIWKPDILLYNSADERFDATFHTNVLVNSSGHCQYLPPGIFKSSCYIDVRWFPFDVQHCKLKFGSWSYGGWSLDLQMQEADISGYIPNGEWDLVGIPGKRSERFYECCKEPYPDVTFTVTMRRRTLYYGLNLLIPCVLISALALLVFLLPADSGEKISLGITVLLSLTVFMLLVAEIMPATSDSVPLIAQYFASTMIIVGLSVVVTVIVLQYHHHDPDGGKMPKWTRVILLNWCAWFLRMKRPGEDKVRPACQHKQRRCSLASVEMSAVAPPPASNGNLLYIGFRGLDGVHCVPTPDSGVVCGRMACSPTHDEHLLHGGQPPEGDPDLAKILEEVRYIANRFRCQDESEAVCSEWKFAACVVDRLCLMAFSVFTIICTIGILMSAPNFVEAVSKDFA
Sequence of α2 GFEP β2 AChR (P17787 26-502 limits assumed, stated change not applied): as the sequence (P17787 26-502, stated change not applied) above
Sequence of α2 GFEP β2 AChR (Q15822 27-529 K208G/K244F/D246E/I251P limits assumed, stated change not applied): as the sequence (Q15822 27-529 K208G/K244F/D246E/I251P) above
Sequence of muscle AChR (α1, β, ε, δ) (P02708 21-457 limits assumed): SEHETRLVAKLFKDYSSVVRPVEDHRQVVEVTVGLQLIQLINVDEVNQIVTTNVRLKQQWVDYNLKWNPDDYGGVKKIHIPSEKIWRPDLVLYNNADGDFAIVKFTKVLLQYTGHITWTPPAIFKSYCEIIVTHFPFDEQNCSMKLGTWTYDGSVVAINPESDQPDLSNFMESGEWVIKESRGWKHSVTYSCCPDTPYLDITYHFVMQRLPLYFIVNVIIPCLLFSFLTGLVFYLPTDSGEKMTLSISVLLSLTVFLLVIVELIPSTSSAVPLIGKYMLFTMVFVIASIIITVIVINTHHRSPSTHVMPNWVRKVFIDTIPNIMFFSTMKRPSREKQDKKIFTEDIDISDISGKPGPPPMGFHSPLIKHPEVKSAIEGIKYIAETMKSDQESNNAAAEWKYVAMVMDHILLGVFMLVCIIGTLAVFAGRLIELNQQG
Sequence of muscle AChR (α1, β, ε, δ) (Q04844 21-493 limits assumed): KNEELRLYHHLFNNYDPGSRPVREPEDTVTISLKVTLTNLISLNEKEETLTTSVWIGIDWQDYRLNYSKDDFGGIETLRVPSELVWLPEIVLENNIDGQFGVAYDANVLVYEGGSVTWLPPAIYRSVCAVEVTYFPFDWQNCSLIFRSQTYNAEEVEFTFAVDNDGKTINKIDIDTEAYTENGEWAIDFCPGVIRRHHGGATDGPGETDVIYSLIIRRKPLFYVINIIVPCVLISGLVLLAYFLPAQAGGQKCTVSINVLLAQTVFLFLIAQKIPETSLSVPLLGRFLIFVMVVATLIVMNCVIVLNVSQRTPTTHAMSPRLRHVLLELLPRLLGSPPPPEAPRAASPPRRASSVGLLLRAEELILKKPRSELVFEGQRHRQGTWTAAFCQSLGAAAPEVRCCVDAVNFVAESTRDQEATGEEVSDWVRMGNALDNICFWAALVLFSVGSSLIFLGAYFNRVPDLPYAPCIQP
Sequence of muscle AChR (α1, β, ε, δ) (Q07001 22-517 limits assumed): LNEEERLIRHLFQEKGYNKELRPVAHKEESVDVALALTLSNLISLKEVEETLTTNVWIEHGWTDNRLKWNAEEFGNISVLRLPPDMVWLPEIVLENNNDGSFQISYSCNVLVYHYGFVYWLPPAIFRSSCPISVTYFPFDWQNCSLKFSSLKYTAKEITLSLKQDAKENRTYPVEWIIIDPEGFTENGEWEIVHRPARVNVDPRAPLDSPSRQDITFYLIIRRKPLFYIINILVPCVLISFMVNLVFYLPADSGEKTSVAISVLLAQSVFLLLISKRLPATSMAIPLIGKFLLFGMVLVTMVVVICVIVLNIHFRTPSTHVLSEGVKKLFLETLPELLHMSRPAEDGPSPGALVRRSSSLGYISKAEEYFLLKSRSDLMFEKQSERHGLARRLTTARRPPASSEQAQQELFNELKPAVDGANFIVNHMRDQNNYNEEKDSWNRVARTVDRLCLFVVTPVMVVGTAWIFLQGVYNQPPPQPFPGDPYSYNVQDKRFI

Clc1ccc(C2CC3CCC2N3)cn1 (racemic) [Epibatidine, (±) epibatidine]
nH (Hill coefficient) (α4 GREFP β2 AChR [1]; α4 GREFP + β2, ± S.E.): 1.3 ± 0.1

CC(=O)OCC[N+](C)(C)C [ACh, Acetylcholine]
nH (Hill coefficient) (α4 GREFP β2 AChR [1]): 0.81 ± 0.07

CN1CCC[C@H]1c1cccnc1 [Nicotine, (−)nicotine]
nH (Hill coefficient) (α4 GREFP β4 AChR [2]): 0.80 ± 0.1 | nH (Hill coefficient) (α2 GFEP β4 AChR [3]): 0.96 ± 0.1 | nH (Hill coefficient) (α4 GREFP β2 AChR [1]): 1.4 ± 0.1 | Kd (α2 GFEP β4 AChR [4]): 210 nM | nH (Hill coefficient) (α3 GFEP β4 AChR [5]): 0.75 ± 0.1

α-bungarotoxin [α-BTX]
Half-life (α3 GFEP β4 AChR [6]): 77 h | kdissoc (α3 GFEP β4 AChR [6]): 2.5 ± 0.9 × 10^−6 s^−1 | Half-life (α4 GREFP β4 AChR [7]): 19 h | kdissoc (α4 GREFP β4 AChR [7]): 1.0 ± 0.1 × 10^−5 s^−1 | Half-life [8]: 5.4 h | kdissoc [8]: 3.5 ± 0.4 × 10^−5 s^−1 | Half-life (α4 GREFP β2 AChR [9]): 12.6 h | dissociation constant from ratio of dissociation to association rate constants (α4 GREFP β2 AChR [9]): 0.3 nM | kdissoc (α4 GREFP β2 AChR [9]): 1.5 × 10^−5 s^−1 and 1.5 ± 0.2 × 10^−5 s^−1 | Half-life (α2 GFEP β2 AChR): 6.0 h | kdissoc (α2 GFEP β2 AChR): 3.2 ± 0.3 × 10^−5 s^−1 | Half-life (α7 AChR): 133 h | kdissoc (α7 AChR): 1.5 ± 0.3 × 10^−6 s^−1 | Half-life (α2 GFEP β4 AChR [10]): 9.6 h | kdissoc (α2 GFEP β4 AChR [10]): 2.0 ± 0.3 × 10^−5 s^−1 | affinity for the toxin (ratio of total to nonspecific binding close to one) (wild type α4β2 AChR): negligible affinity
